Measurements reported in patent US20100298141A1, “SUBSTITUTED PYRIDINE N-OXIDE HERBICIDES” (E. I. DU PONT DE NEMOURS AND COMPANY, priority 2007, published 2010).

Columns and labels:
barnyardgrass [1] = assay: Test A pre-/postemergence greenhouse test; type: in vivo, Echinochloa crus-galli; conditions: for Plant response rating, Barnyardgrass: 0 to 100 scale where 0 is no effect and 100 is complete control; for Barnyardgrass plant response rating: 0 to 100 scale
How it was run: (§1)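 Untreated controls served as the reference for visual injury ratings taken about ten days after spraying. The non-phytotoxic solvent/surfactant formulation was applied preemergence to seeded loam and sand and postemergence to plants two to ten cm high.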

crabgrass = assay: Test A pre-/postemergence greenhouse test; type: in vivo, Digitaria sanguinalis; conditions: for Plant response rating, Crabgrass, Large: 0 to 100 scale where 0 is no effect and 100 is complete control; for Crabgrass, Large plant response rating: 0 to 100 scale
How it was run: as §1

giant foxtail = assay: Test A pre-/postemergence greenhouse test; type: in vivo, Setaria faberi; conditions: for Plant response rating, Foxtail, Giant: 0 to 100 scale where 0 is no effect and 100 is complete control; for Foxtail, Giant plant response rating: 0 to 100 scale
How it was run: as §1

morningglory = assay: Test A pre-/postemergence greenhouse test; type: in vivo, Ipomoea spp.; conditions: for Plant response rating, Morningglory: 0 to 100 scale where 0 is no effect and 100 is complete control; for Morningglory plant response rating: 0 to 100 scale
How it was run: as §1

redroot pigweed = assay: Test A pre-/postemergence greenhouse test; type: in vivo, Amaranthus retroflexus; conditions: for Plant response rating, Pigweed: 0 to 100 scale where 0 is no effect and 100 is complete control; for Pigweed plant response rating: 0 to 100 scale
How it was run: as §1

velvetleaf = assay: Test A pre-/postemergence greenhouse test; type: in vivo, Abutilon theophrasti; conditions: for Plant response rating, Velvetleaf: 0 to 100 scale where 0 is no effect and 100 is complete control; for Velvetleaf plant response rating: 0 to 100 scale
How it was run: as §1

wheat = assay: Test A pre-/postemergence greenhouse test; type: in vivo, Triticum aestivum; conditions: for Plant response rating, Wheat: 0 to 100 scale where 0 is no effect and 100 is complete control; for Wheat plant response rating: 0 to 100 scale
How it was run: as §1

corn = assay: Test A pre-/postemergence greenhouse test; type: in vivo, Zea mays; conditions: for Plant response rating, Corn: 0 to 100 scale where 0 is no effect and 100 is complete control; for Corn plant response rating: 0 to 100 scale
How it was run: as §1

rice = assay: Test C flooded paddy test; type: in vivo, Oryza sativa; conditions: Flood
How it was run: (§2)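 Compound was added to standing water 3 cm above soil, flood maintained, and plants held in a greenhouse before visual scoring against controls at 13 to 15 days.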

umbrella sedge = assay: Test C flooded paddy test; type: in vivo, Cyperus difformis; conditions: Flood
How it was run: as §2

duck salad = assay: Test C flooded paddy test; type: in vivo, Heteranthera limosa; conditions: Flood
How it was run: as §2

barnyardgrass [2] = assay: Test C flooded paddy test; type: in vivo, Echinochloa crus-galli; conditions: Flood
How it was run: as §2

[3] = Postemergence, 500 g ai/ha, 0 is no effect, 100 is complete control
[4] = Preemergence, 125 g ai/ha, 0 no effect, 100 complete control
[5] = 62 g ai/ha, scale 0 to 100, 0 no effect, 100 complete control, 13 to 15 days
[6] = 250 g ai/ha, scale 0 to 100, 0 no effect, 100 complete control, 13 to 15 days
[7] = 31 g ai/ha, scale 0 to 100 (0 no effect, 100 complete control)
[8] = 125 g ai/ha, scale 0 to 100, 0 no effect, 100 complete control, 13 to 15 days

Cc1cc[n+]([O-])c(S(=O)(=O)Cc2c(C(F)(F)F)nn(CC(F)(F)F)c2Cl)c1 [Compound 49]
70: Barnyardgrass plant response rating (barnyardgrass [1]; [3]) | Barnyardgrass plant response rating (barnyardgrass [1]; [4]) | Crabgrass, Large plant response rating (crabgrass; [3]) | Crabgrass, Large plant response rating (crabgrass; [4]) | Foxtail, Giant plant response rating (giant foxtail; [3])
80: Foxtail, Giant plant response rating (giant foxtail; [4]) | Pigweed plant response rating (redroot pigweed; [4])
40: Plant response rating, Barnyardgrass (barnyardgrass [1]; Postemergence, 125 g ai/ha) | Plant response rating, Foxtail, Giant (giant foxtail; Postemergence, 125 g ai/ha) | Plant response rating, Velvetleaf (velvetleaf; Preemergence, 500 g ai/ha)
20: Plant response rating, Velvetleaf (velvetleaf; Postemergence, 125 g ai/ha)
0: Plant response rating, Morningglory (morningglory; Postemergence, 125 g ai/ha) | Morningglory plant response rating (morningglory; [3]) | Plant response rating, Pigweed (redroot pigweed; Postemergence, 125 g ai/ha) | Velvetleaf plant response rating (velvetleaf; [4]) | Plant response rating, Wheat (wheat; Postemergence, 125 g ai/ha) | Wheat plant response rating (wheat; [3]) | Wheat plant response rating (wheat; [4]) | Plant response rating, Corn (corn; Postemergence, 125 g ai/ha) | Corn plant response rating (corn; [3]) | Corn plant response rating (corn; [4]) | Plant response rating, Corn (corn; Preemergence, 500 g ai/ha) | Plant response rating, Rice (rice; [5]) | Plant response rating, Rice (rice; [6]) | Plant response rating, Ducksalad (duck salad; [5]) | Plant response rating, Ducksalad (duck salad; [6]) | Plant response rating, Barnyardgrass (barnyardgrass [2]; [5]) | Plant response rating, Barnyardgrass (barnyardgrass [2]; [6])
90: Plant response rating, Barnyardgrass (barnyardgrass [1]; Preemergence, 500 g ai/ha) | Plant response rating, Crabgrass, Large (crabgrass; Preemergence, 500 g ai/ha) | Plant response rating, Foxtail, Giant (giant foxtail; Preemergence, 500 g ai/ha)
30: Plant response rating, Crabgrass, Large (crabgrass; Postemergence, 125 g ai/ha) | Morningglory plant response rating (morningglory; [4]) | Plant response rating, Morningglory (morningglory; Preemergence, 500 g ai/ha) | Velvetleaf plant response rating (velvetleaf; [3]) | Plant response rating, Wheat (wheat; Preemergence, 500 g ai/ha)
10: Pigweed plant response rating (redroot pigweed; [3]) | Plant response rating, Sedge, Umbrella (umbrella sedge; [6])
100: Plant response rating, Pigweed (redroot pigweed; Preemergence, 500 g ai/ha)

O=S(=O)(Cc1c(C(F)(F)F)nn(CC(F)(F)F)c1Cl)c1ccc(Cl)c[n+]1[O-] [Compound 50]
90: Plant response rating, Barnyardgrass (barnyardgrass [1]; Preemergence, 500 g ai/ha) | Plant response rating, Crabgrass, Large (crabgrass; Preemergence, 500 g ai/ha) | Plant response rating, Foxtail, Giant (giant foxtail; Preemergence, 500 g ai/ha)
80: Foxtail, Giant plant response rating (giant foxtail; [4]) | Pigweed plant response rating (redroot pigweed; [4])
20: Plant response rating, Pigweed (redroot pigweed; Postemergence, 125 g ai/ha)
0: Plant response rating, Velvetleaf (velvetleaf; Postemergence, 125 g ai/ha) | Velvetleaf plant response rating (velvetleaf; [3]) | Velvetleaf plant response rating (velvetleaf; [4]) | Plant response rating, Velvetleaf (velvetleaf; Preemergence, 500 g ai/ha) | Plant response rating, Wheat (wheat; Postemergence, 125 g ai/ha) | Wheat plant response rating (wheat; [3]) | Wheat plant response rating (wheat; [4]) | Plant response rating, Wheat (wheat; Preemergence, 500 g ai/ha) | Plant response rating, Corn (corn; Postemergence, 125 g ai/ha) | Corn plant response rating (corn; [3]) | Corn plant response rating (corn; [4]) | Plant response rating, Corn (corn; Preemergence, 500 g ai/ha) | Plant response rating, Rice (rice; [5]) | Plant response rating, Ducksalad (duck salad; [5]) | Plant response rating, Barnyardgrass (barnyardgrass [2]; [5])
60: Plant response rating, Barnyardgrass (barnyardgrass [1]; Postemergence, 125 g ai/ha) | Plant response rating, Crabgrass, Large (crabgrass; Postemergence, 125 g ai/ha) | Crabgrass, Large plant response rating (crabgrass; [4])
40: Plant response rating, Morningglory (morningglory; Preemergence, 500 g ai/ha) | Plant response rating, Sedge, Umbrella (umbrella sedge; [6]) | Plant response rating, Ducksalad (duck salad; [6])
70: Barnyardgrass plant response rating (barnyardgrass [1]; [3]) | Barnyardgrass plant response rating (barnyardgrass [1]; [4]) | Crabgrass, Large plant response rating (crabgrass; [3]) | Plant response rating, Foxtail, Giant (giant foxtail; Postemergence, 125 g ai/ha) | Foxtail, Giant plant response rating (giant foxtail; [3])
45: Plant response rating, Barnyardgrass (barnyardgrass [2]; [6])
100: Plant response rating, Pigweed (redroot pigweed; Preemergence, 500 g ai/ha)
30: Plant response rating, Morningglory (morningglory; Postemergence, 125 g ai/ha) | Morningglory plant response rating (morningglory; [3]) | Morningglory plant response rating (morningglory; [4]) | Pigweed plant response rating (redroot pigweed; [3]) | Plant response rating, Rice (rice; [6])

Cn1nc(C(F)(F)F)c(C[S+]([O-])c2c(F)ccc[n+]2[O-])c1Cl (stereo not shown) [Compound 52]
30: Plant response rating, Crabgrass, Large (crabgrass; Postemergence, 125 g ai/ha) | Foxtail, Giant plant response rating (giant foxtail; [4]) | Corn plant response rating (corn; [3])
10: Barnyardgrass plant response rating (barnyardgrass [1]; [4])
85: Plant response rating, Sedge, Umbrella (umbrella sedge; [6])
40: Plant response rating, Barnyardgrass (barnyardgrass [1]; Postemergence, 125 g ai/ha) | Crabgrass, Large plant response rating (crabgrass; [3]) | Plant response rating, Crabgrass, Large (crabgrass; Preemergence, 500 g ai/ha) | Plant response rating, Foxtail, Giant (giant foxtail; Postemergence, 125 g ai/ha) | Plant response rating, Morningglory (morningglory; Preemergence, 500 g ai/ha) | Plant response rating, Pigweed (redroot pigweed; Postemergence, 125 g ai/ha) | Plant response rating, Sedge, Umbrella (umbrella sedge; [8]) | Plant response rating, Ducksalad (duck salad; [8])
60: Foxtail, Giant plant response rating (giant foxtail; [3]) | Velvetleaf plant response rating (velvetleaf; [3]) | Plant response rating, Ducksalad (duck salad; [6])
100: Plant response rating, Pigweed (redroot pigweed; Preemergence, 500 g ai/ha)
50: Plant response rating, Velvetleaf (velvetleaf; Postemergence, 125 g ai/ha) | Wheat plant response rating (wheat; [3])
0: Crabgrass, Large plant response rating (crabgrass; [4]) | Plant response rating, Morningglory (morningglory; Postemergence, 125 g ai/ha) | Morningglory plant response rating (morningglory; [4]) | Velvetleaf plant response rating (velvetleaf; [4]) | Plant response rating, Velvetleaf (velvetleaf; Preemergence, 500 g ai/ha) | Plant response rating, Wheat (wheat; Postemergence, 125 g ai/ha) | Wheat plant response rating (wheat; [4]) | Plant response rating, Wheat (wheat; Preemergence, 500 g ai/ha) | Plant response rating, Corn (corn; Postemergence, 125 g ai/ha) | Corn plant response rating (corn; [4]) | Plant response rating, Corn (corn; Preemergence, 500 g ai/ha) | Plant response rating, Rice (rice; [7]) | Plant response rating, Rice (rice; [5]) | Plant response rating, Rice (rice; [8]) | Plant response rating, Rice (rice; [6]) | Plant response rating, Sedge, Umbrella (umbrella sedge; [7]) | Plant response rating, Ducksalad (duck salad; [7]) | Plant response rating, Ducksalad (duck salad; [5]) | Plant response rating, Barnyardgrass (barnyardgrass [2]; [7]) | Plant response rating, Barnyardgrass (barnyardgrass [2]; [5]) | Plant response rating, Barnyardgrass (barnyardgrass [2]; [8]) | Plant response rating, Barnyardgrass (barnyardgrass [2]; [6])
20: Morningglory plant response rating (morningglory; [3])
90: Plant response rating, Foxtail, Giant (giant foxtail; Preemergence, 500 g ai/ha)
80: Plant response rating, Barnyardgrass (barnyardgrass [1]; Preemergence, 500 g ai/ha)
70: Barnyardgrass plant response rating (barnyardgrass [1]; [3]) | Pigweed plant response rating (redroot pigweed; [3])
